In patent US8835469B2 (Cadila Healthcare Limited, priority 2009, dated 2014):

What was measured:
Male C57 mice = assay: Oral glucose tolerance test (OGTT), overnight fasted; assay type: in vivo; settings: for % change in glucose levels Vs Control: treated at −30 min, oral glucose load 3 g/kg at 0 min; for % change in glucose levels Vs Control, Mean: Mean over the time points, oral glucose load 3 g/kg
Procedure: Effect of Glucokinase Activators (GKAs) of the Present Invention on Glucose Reduction Determined by Oral Glucose Tolerence Test (OGTT):
Male C57 mice, aged 8-10 weeks were fasted overnight and subjected to the treatment of selected GK activator at time denoted as −30 min. At time 0 min, mice were given oral glucose load of 3 g/kg, and the glucose excursion was observed upto 120 min. The percentage change against the change in glucose levels of control are mentioned in the table 2.

glucokinase (GK) enzyme = target: T1, glucokinase (GK) enzyme (Homo sapiens, UniProt P35557); assay: In-vitro glucokinase (GK) activation assay (coupled with glucose-6-phosphate dehydrogenase, absorbance at 340); assay type: biochemical; settings: glucose 2.5 mM; for activity at 0.1 µM: 0.1 uM compound; for activity at 0.1 µM / activity at 1 µM / activity at 5 µM / activity at 10 µM: read-out: % of GK activity wrt DMSO; for activity at 1 µM: 1 uM compound; for activity at 5 µM: 5 uM compound; for activity at 10 µM: 10 uM compound; for EC50: GK enzyme 0.2 units, ATP 1 mM
T1 sequence (P35557 1-465): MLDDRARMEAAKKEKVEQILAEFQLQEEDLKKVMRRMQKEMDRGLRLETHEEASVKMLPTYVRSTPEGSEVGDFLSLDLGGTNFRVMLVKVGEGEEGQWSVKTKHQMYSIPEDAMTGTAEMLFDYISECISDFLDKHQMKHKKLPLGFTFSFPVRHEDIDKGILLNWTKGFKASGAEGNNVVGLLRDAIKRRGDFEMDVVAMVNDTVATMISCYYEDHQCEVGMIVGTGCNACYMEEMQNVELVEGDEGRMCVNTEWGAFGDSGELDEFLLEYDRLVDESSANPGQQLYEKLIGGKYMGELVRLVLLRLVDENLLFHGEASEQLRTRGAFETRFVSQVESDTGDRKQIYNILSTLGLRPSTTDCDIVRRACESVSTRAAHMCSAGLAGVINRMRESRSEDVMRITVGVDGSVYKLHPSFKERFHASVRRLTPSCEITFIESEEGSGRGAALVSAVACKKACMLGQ
Procedure: The compound of the invention was incubated with glucokinase (GK) enzyme (0.2 units) for 10 minutes in assay buffer at 26° C. After incubation, addition of glucose-6-phosphate dehydrogenase (2.5 units), ATP (1 mM) and glucose (2.5 mM). Absorbance is measured at 340 nm for 15 minutes with 10 second interval using UV transparent plate in kinetic mode on Spectramax-190 at 30° C.

activity at 0.1 µM (glucokinase (GK) enzyme)	activity at 1 µM (glucokinase (GK) enzyme)	activity at 5 µM (glucokinase (GK) enzyme)	activity at 10 µM (glucokinase (GK) enzyme)	EC50 (glucokinase (GK) enzyme)	SMILES	% change in glucose levels Vs Control (Male C57 mice; 0 min Vs −30 min)	% change in glucose levels Vs Control (Male C57 mice; 30 min Vs −30 min)	% change in glucose levels Vs Control (Male C57 mice; 60 min Vs −30 min)	% change in glucose levels Vs Control (Male C57 mice; 120 min Vs −30 min)	% change in glucose levels Vs Control, Mean (Male C57 mice)
144%	238%	255%	271%	34 nM	Cc1nnc(-c2ccc(Oc3cc(O[C@H]4CCN(C)C4=O)cc(C(=O)Nc4nccs4)c3)cc2)o1 [Example 68, (S)-3-(4-(5-Methyl-1,3,4-oxadiazol-2-yl)phenoxy)-5-((1-methyl-2-oxopyrrolidin-3-yl)oxy)-N-(thiazol-2-yl)benzamide]	−46.7 ± 0.8%	−25.6 ± 7.2%	−51.5 ± 4.9%	−58.2 ± 6.7%	−46.6%
148%	273%	330%	322%	320 nM	Cc1nnc(-c2ccc(Oc3cc(OC4CCN(C)C4=O)cc(C(=O)Nc4nc(CC(=O)O)cs4)c3)cc2)o1 (centres unmarked) [Example 4, 2-(2-(3-(4-(5-Methyl-1,3,4-oxadiazol-2-yl)phenoxy)-5-((1-methyl-2-oxopyrrolidin-3-yl)oxy)benzamido)thiazol-4-yl)acetic acid]	−23.3 ± 3.1%	−22.1 ± 6.1%	−21.8 ± 5.9%	−16.7 ± 5.9%	−21.0%
234%	302%	320%	318%	74 nM	Cc1csc(NC(=O)c2cc(Oc3ccc(-c4nnc(C)o4)cc3)cc(OC3CCN(C)C3=O)c2)n1 (centres unmarked) [Example 13, 3-(4-(5-Methyl-1,3,4-oxadiazol-2-yl)phenoxy)-5-(1-methyl-2-oxopyrrolidin-3-yloxy)-N-(4-methylthiazol-2-yl)benzamide]	−38.7 ± 3.5%	−34.5 ± 9.3%	−48.2 ± 7.5%	−60.5 ± 4.5%	−45.5%
276%	309%	316%	309%	21 nM	Cc1nnc(-c2ccc(Oc3cc(OC4CCN(C)C4=O)cc(C(=O)Nc4nccs4)c3)cc2)o1 (centres unmarked) [Example 1, 3-(4-(5-Methyl-1,3,4-oxadiazol-2-yl)phenoxy)-5-(1-methyl-2-oxopyrrolidin-3-yloxy)-N-(thiazol-2-yl)benzamide]	−32.7 ± 2.8%	3.3 ± 9.7%	−39.5 ± 7.0%	−24.3 ± 9.0%	−23.3%
125%	158%	192%	178%		Cc1nnc(-c2ccc(Oc3cc(OC4CCN(C(C)C)C4=O)cc(C(=O)Nc4ncc(C)s4)c3)cc2)o1 (centres unmarked) [Example 17, 3((1-Isopropyl-2-oxopyrrolidin-3-yl)oxy)-5-(4-(5-methyl-1,3,4-oxadiazol-2-yl)phenoxy)-N-(5-methylthiazol-2-yl)benzamide]					
125%	149%	203%	208%		CCOC(=O)c1cnc(NC(=O)c2cc(Oc3ccc(-c4nnc(C)o4)cc3)cc(OC3CCN(C)C3=O)c2)s1 (centres unmarked) [Example 25, Ethyl 2-(3-(4-(5-methyl-1,3,4-oxadiazol-2-yl)phenoxy)-5-((1-methyl-2-oxopyrrolidin-3-yl)oxy)benzamido)thiazole-5-carboxylate]					
146%	295%	356%	343%		Cc1csc(NC(=O)c2cc(Oc3ccc(-c4nnc(-c5ccccc5)o4)cc3)cc(OC3CCN(C)C3=O)c2)n1 (centres unmarked) [Example 31, 3-((1-Methyl-2-oxopyrrolidin-3-yl)oxy)-N-(4-methylthiazol-2-yl)-5-(4-(5-phenyl-1,3,4-oxadiazol-2-yl)phenoxy)benzamide]					
146%	147%	173%	189%		Cc1cc(NC(=O)c2cc(Oc3ccc(-c4nnc(C)o4)cc3)cc(OC3CCN(C)C3=O)c2)n[nH]1 (centres unmarked) [Example 24, 3-(4-(5-Methyl-1,3,4-oxadiazol-2-yl)phenoxy)-N-(5-methyl-1H-pyrazol-3-yl)-5-((1-methyl-2-oxopyrrolidin-3-yl)oxy)benzamide]					
182%	350%	396%	337%		CN1CCC(Oc2cc(Oc3ccc(-c4nnc(-c5ccccc5)o4)cc3)cc(C(=O)Nc3nccs3)c2)C1=O (centres unmarked) [Example 34, 3((1-Methyl-2-oxopyrrolidin-3-yl)oxy)-5-(4-(5-phenyl-1,3,4-oxadiazol-2-yl)phenoxy)-N-(thiazol-2-yl)benzamide]					
106%	169%	259%	280%		Cc1csc(NC(=O)c2cc(Oc3ccc(-c4nnc(C)o4)cc3)cc(OC3CCN(C(C)C)C3=O)c2)n1 (centres unmarked) [Example 16, 3((1-Isopropyl-2-oxopyrrolidin-3-yl)oxy)-5-(4-(5-methyl-1,3,4-oxadiazol-2-yl)phenoxy)-N-(4-methylthiazol-2-yl)benzamide]					
120%	213%	278%	281%		Cc1nnc(-c2ccc(Oc3cc(OC4CCN(C5CC5)C4=O)cc(C(=O)Nc4nccs4)c3)cc2)o1 (centres unmarked) [Example 21, 3((1-Cyclopropyl-2-oxopyrrolidin-3-yl)oxy)-5-(4-(5-methyl-1,3,4-oxadiazol-2-yl)phenoxy)-N-(thiazol-2-yl)benzamide]					
101%	109%	130%	148%		Cc1nnc(-c2ccc(Oc3cc(OC4CCN(C)C4=O)cc(C(=O)n4c(N)nc5ccccc54)c3)cc2)o1 (centres unmarked) [Example 11, 3-(3-(2-Amino-1H-benzo[d]imidazole-1-carbonyl)-5-(4-(5-methyl-1,3,4-oxadiazol-2-yl)phenoxy)phenoxy)-1-methylpyrrolidin-2-one]					
201%	309%	383%	375%		Cc1csc(NC(=O)c2cc(Oc3ccc(-c4nnc(C5CC5)o4)cc3)cc(OC3CCN(C)C3=O)c2)n1 (centres unmarked) [Example 33, 3-(4-(5-Cyclopropyl-1,3,4-oxadiazol-2-yl)phenoxy)-5-((1-methyl-2-oxopyrrolidin-3-yl)oxy)-N-(4-methylthiazol-2-yl)benzamide]					
168%	250%	287%	282%		Cc1nc(-c2ccc(Oc3cc(OC4CCN(C)C4=O)cc(C(=O)Nc4ncc(C)s4)c3)cc2)no1 (centres unmarked) [Example 23, 3-(4-(5-Methyl-1,2,4-oxadiazol-3-yl)phenoxy)-5-((1-methyl-2-oxopyrrolidin-3-yl)oxy)-N-(5-methylthiazol-2-yl)benzamide]					
100%	115%	190%	275%		Cc1nnc(-c2ccc(Oc3cc(OC4CCN(C)C4=O)cc(C(=O)NC4=NCCS4)c3)cc2)o1 (centres unmarked) [Example 6, N-(4,5-Dihydrothiazol-2-yl)-3-(4-(5-methyl-1,3,4-oxadiazol-2-yl)phenoxy)-5-((1-methyl-2-oxopyrrolidin-3-yl)oxy)benzamide]					
107%	119%	139%	150%		Cc1nnc(-c2ccc(Oc3cc(OC4CCN(C)C4=O)cc(C(=O)Nc4cc(C)n(C(=O)OC(C)(C)C)n4)c3)cc2)o1 (centres unmarked) [Example 12, tert-Butyl 5-methyl-3-(3-(4-(5-methyl-1,3,4-oxadiazol-2-yl)phenoxy)-5-((1-methyl-2-oxopyrrolidin-3-yl)oxy)benzamido)-1H-pyrazole-1-carboxylate]					
163%	283%	347%	320%		Cc1csc(NC(=O)c2cc(Oc3ccc(-c4noc(C)n4)cc3)cc(OC3CCN(C)C3=O)c2)n1 (centres unmarked) [Example 22, 3-(4-(5-Methyl-1,2,4-oxadiazol-3-yl)phenoxy)-5-((1-methyl-2-oxopyrrolidin-3-yl)oxy)-N-(4-methylthiazol-2-yl)benzamide]					
